Measurements from ChEMBL document CHEMBL1201862, “PubChem BioAssay data set” (2004).
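Method: 48-hour compound exposure of cells in 96-well plates, five concentrations, linear interpolation of endpoints. GI50 marks 50% less growth.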 The source made the active and inactive calls. No stated cut-off is given here; in the data, active = GI50 up to about 1.1 µM and inactive = higher.

How the values were obtained:
Experiment in all cases: inhibition of tumour cell growth, NCI panel, 48 h
SF-539 = system: SF-539
TK-10 = system: TK-10
SF-268 = system: SF-268
UACC-62 = system: UACC-62
CAKI-1 = system: CAKI-1
UACC-257 = system: UACC-257
LOX IMVI = system: LOX IMVI
HCT-15 = system: HCT-15
OVCAR-3 = system: OVCAR-3
CCRF-CEM = system: CCRF-CEM
SK-MEL-2 = system: SK-MEL-2
HCC 2998 = system: HCC 2998
SN12C = system: SN12C
OVCAR-8 = system: OVCAR-8
HL-60 = system: HL-60
Malme-3M = system: Malme-3M
A498 = system: A498
NCI-H522 = system: NCI-H522

| SMILES | GI50 (SF-539) | GI50 (TK-10) | GI50 (SF-268) | GI50 (UACC-62) | GI50 (CAKI-1) | GI50 (UACC-257) | GI50 (LOX IMVI) | GI50 (HCT-15) [µM] | GI50 (OVCAR-3) | GI50 (CCRF-CEM) | GI50 (SK-MEL-2) | GI50 (HCC 2998) | GI50 (SN12C) | GI50 (OVCAR-8) | GI50 (HL-60) | GI50 (Malme-3M) | GI50 (A498) | GI50 (NCI-H522) |
| --- | --- | --- | --- | --- | --- | --- | --- | --- | --- | --- | --- | --- | --- | --- | --- | --- | --- | --- |
| Cc1ccc(NC(=O)CCC(=O)C2CC(=O)CCC2=O)cc1C (centres undefined) | > 100 µM (inactive) | > 100 µM (inactive) | > 100 µM (inactive) | > 100 µM (inactive) | > 100 µM (inactive) | > 100 µM (inactive) | > 100 µM (inactive) | > 100 | > 100 µM (inactive) | > 100 µM (inactive) | > 100 µM (inactive) | > 100 µM (inactive) | > 100 µM (inactive) | > 100 µM (inactive) | > 100 µM (inactive) | > 100 µM (inactive) |  |  |
| CN(/N=C/c1ccnc2ccccc12)c1c([N+](=O)[O-])cc([N+](=O)[O-])cc1[N+](=O)[O-] | > 100 µM (inactive) | > 100 µM (inactive) | 61.2 µM (inactive) | > 100 µM (inactive) | 25.1 µM (inactive) | > 100 µM (inactive) | 48.2 µM (inactive) | 44.5 | 41.6 µM (inactive) | 18.3 µM (inactive) | 24.4 µM (inactive) | > 100 µM (inactive) | > 100 µM (inactive) | 98.2 µM (inactive) | 22.4 µM (inactive) | 31.5 µM (inactive) | 48.8 µM (inactive) | 27.6 µM (inactive) |
| CC(=O)O[C@H]1CC[C@@]2(C)C(=CC[C@@H]3C2CC[C@]2(C)Nc4oncc4CC32)C1 (some centres undefined) | 44.9 µM (inactive) | 49.2 µM (inactive) |  | 27.5 µM (inactive) | 31.3 µM (inactive) | 31.7 µM (inactive) |  | 33 | 16.3 µM (inactive) | 4.85 µM (inactive) | 44.5 µM (inactive) | > 100 µM (inactive) |  | 34.6 µM (inactive) | 11.7 µM (inactive) | 25.3 µM (inactive) | 40.6 µM (inactive) |  |
| NC(=O)c1ccccc1NC(=O)C(=O)Cc1nc2ccccc2nc1O | 48.5 µM (inactive) | > 100 µM (inactive) | > 100 µM (inactive) | > 100 µM (inactive) | > 100 µM (inactive) | > 100 µM (inactive) | > 100 µM (inactive) | > 100 | > 100 µM (inactive) | > 100 µM (inactive) | > 100 µM (inactive) | > 100 µM (inactive) |  | 50 µM (inactive) | > 100 µM (inactive) | > 100 µM (inactive) | > 100 µM (inactive) | > 100 µM (inactive) |
| O=C(O)/C(=C/C=C/c1ccccc1)c1csc(-c2nc(/C(=C\C=C\c3ccccc3)C(=O)O)cs2)n1 | 21.2 µM (inactive) | > 100 µM (inactive) | 30.7 µM (inactive) | 28.8 µM (inactive) |  | 34.9 µM (inactive) | 29.5 µM (inactive) | 23.4 | 23.4 µM (inactive) | 19.7 µM (inactive) | 17.4 µM (inactive) | 20.1 µM (inactive) | 28.7 µM (inactive) | 44.8 µM (inactive) | 17.5 µM (inactive) | 27.2 µM (inactive) | 68.2 µM (inactive) |  |
| CCCCCN(CCCCC)C(=O)[C@H](CCC(=O)OCc1ccccc1)NC(=O)c1cc2ccccc2[nH]1 | > 100 µM (inactive) |  | > 100 µM (inactive) | > 100 µM (inactive) | > 100 µM (inactive) | > 100 µM (inactive) | > 100 µM (inactive) | > 100 | > 100 µM (inactive) | > 100 µM (inactive) | > 100 µM (inactive) | > 100 µM (inactive) | > 100 µM (inactive) | > 100 µM (inactive) | > 100 µM (inactive) | > 100 µM (inactive) | > 100 µM (inactive) | > 100 µM (inactive) |
| C=CCCCCCCCC(O)C1C[C@H](O)C(CCCCC)O1 (some centres undefined) | 15.8 µM (inactive) | 19 µM (inactive) |  | 15 µM (inactive) | 17.9 µM (inactive) | > 10 µM (inactive) | 19.6 µM (inactive) | 21.5 | 17.5 µM (inactive) | 19.3 µM (inactive) |  | 17.9 µM (inactive) | 19.5 µM (inactive) | 19.9 µM (inactive) | 17.5 µM (inactive) | 17.3 µM (inactive) | 19.8 µM (inactive) | 17.1 µM (inactive) |
